{"source": "patent US20090297508A1", "about": "“Compositions and methods for treating hemostasis disorders associated with clec-2 signal transduction” (UNIVERSITY OF YAMANASHI, priority 2005, published 2009)", "key": {"platelets": {"tested_on": "platelets", "test": "Whole cell tyrosine phosphorylation and functional responses of platelets stimulated by rhodocytin", "format": "cell-based", "settings": "data not shown"}, "CLEC-2 [1]": {"tested_on": "CLEC-2", "test": "CLEC-2 tyrosine phosphorylation in human platelets (immunoprecipitation and western blotting)", "format": "cell-based", "settings": "for tyrosine phosphorylation of CLEC-2: 50 μg/ml collagen or 100 μM SFLLRN, time course of up to 5 min; for block of rhodocytin-induced tyrosine phosphorylation of CLEC-2: 30 μM inhibitor pretreatment, 50 nM rhodocytin", "protocol": "(§1) Washed human platelets (1×10^9/ml) pretreated with 1 mM GRGDS (SEQ ID NO: 5) peptide or washed murine platelets (2×10^8/ml) pretreated with 10 μM lotrafiban to inhibit platelet aggregation were stimulated with 50 nM rhodocytin, 100 μM SFLLRN (SEQ ID NO: 6), or 50 μg/ml of collagen. […] Reactions were terminated by addition of 2× ice-cold lysis buffer. Platelet lysates were precleared and detergent-insoluble debris was clarified as described 17. A small aliquot was dissolved with SDS sample buffer for detection of total tyrosine phosphorylation. Antibodies against CLEC-2, PLCγ2, Syk, Btk, SLP-76, LAT, Vav1, or Vav3 were added to the resultant supernatant and incubated overnight. Where indicated, 10 μg of CLEC-2 YXXL-containing peptide plus avidin-Sepharose or GST-fusion protein-associated glutathione Sepharose were incubated with the lysates. […] The samples were lysed with 2× lysis buffer before and 5 min after stimulation. […] After removing insoluble debris by centrifugation, CLEC-2 was immunoprecipitated by addition of protein G. Precipitated proteins or whole cell lysates were separated by SDS-PAGE, electrotransferred, and western blotted by the indicated antibodies."}, "[2]": {"tested_on": "Syk, Btk, LAT, SLP-76, Vav1, Vav3, PLCγ2", "test": "Tyrosine phosphorylation of signaling proteins of the GPVI cascade in platelets", "format": "cell-based, human", "settings": "PP2 present; not shown"}, "CLEC-2 [3]": {"tested_on": "CLEC-2", "test": "Precipitation of CLEC-2 from platelet lysates by GST fusion protein of tandem Syk SH2 domains", "format": "cell-based, human", "settings": "30 μM PP2 pretreatment, 50 nM rhodocytin", "description": "(A) Washed murine platelets were stimulated with 50 nM rhodocytin for the indicated times. Whole cell lysates or immunoprecipitates with antibodies against PLCγ2, Vav1, or Vav3 were separated by SDS-PAGE and western blotted with the indicated antibodies. (B) Control or Syk-deficient platelets were stimulated with 30 nM rhodocytin and platelet aggregation was monitored using an aggregometer. (C) (i)(ii) Washed human platelets, pretreated with or without 30 μM PP2, were stimulated with 50 nM rhodocytin or 10 μg/ml of convulxin for the indicated times. Reactions were terminated by addition of an equal volume of 2× lysis buffer. […] The resultant supernatant was incubated with 40 μl of glutathione beads associated with GST fusion protein containing tandem Syk SH2 domains. Precipitated proteins were separated by SDS-PAGE and western blotted with an antibody to CLEC-2. (iii) CLEC-2 associated with 10 μg of CLEC-2 phospho-YXXL-containing peptide plus avidin-sepharose was detected by CLEC-2 antibody. The data are representative of 2-5 experiments."}, "Syk": {"biological_target": "Syk (Homo sapiens, UniProt P43405)", "settings": "10 μg peptide plus avidin-Sepharose, platelet lysates", "protocol": "as §1"}}, "data": [{"compound": "Cc1ccc(-c2nn(C(C)(C)C)c3ncnc(N)c23)cc1", "note": "[PP1]", "values": [{"measurement": "block of tyrosine phosphorylation in whole cells and functional responses to rhodocytin", "setting": "platelets", "value": "block tyrosine phosphorylation in whole cells and all functional responses"}]}, {"compound": "collagen", "values": [{"measurement": "tyrosine phosphorylation of CLEC-2", "setting": "CLEC-2 [1]", "value": "does not undergo tyrosine phosphorylation"}]}, {"compound": "Nc1ncnc2c1cnn2-c1ccccc1", "note": "[PP3]", "values": [{"measurement": "block of rhodocytin-induced tyrosine phosphorylation of CLEC-2", "setting": "CLEC-2 [1]", "value": "not"}]}, {"compound": "CC(C)(C)n1nc(-c2ccc(Cl)cc2)c2c(N)ncnc21", "note": "[PP2]", "values": [{"measurement": "block of rhodocytin-induced tyrosine phosphorylation of CLEC-2", "setting": "CLEC-2 [1]", "value": "block tyrosine phosphorylation of both the 32 and 40 kDa forms of CLEC-2"}, {"measurement": "block of tyrosine phosphorylation in whole cells and functional responses to rhodocytin", "setting": "platelets", "value": "block tyrosine phosphorylation in whole cells and all functional responses"}, {"measurement": "effect on rhodocytin-induced tyrosine phosphorylation of Syk, Btk, LAT, SLP-76, Vav1, Vav3, PLCγ2", "setting": "[2]", "value": "abolished"}, {"measurement": "effect on precipitation of CLEC-2 by Syk fusion protein from rhodocytin-stimulated platelets", "setting": "CLEC-2 [3]", "value": "abolished"}]}, {"compound": "Biotin-6-aminohexanoic acid (Ahx)-MQDEDGYITLNIK-OH [non-phosphorylated peptide]", "values": [{"measurement": "interaction of Syk with CLEC-2 YXXL peptide", "setting": "Syk", "value": "no interaction"}]}, {"compound": "Biotin-6-aminohexanoic acid (Ahx)-MQDEDGY(PO3H2)ITLNIK-OH", "values": [{"measurement": "interaction of Syk with CLEC-2 YXXL peptide", "setting": "Syk", "value": "Syk could be precipitated"}]}, {"compound": "Ser-Phe-Leu-Leu-Arg-Asn (SFLLRN)", "values": [{"measurement": "tyrosine phosphorylation of CLEC-2", "setting": "CLEC-2 [1]", "value": "does not undergo tyrosine phosphorylation"}]}]}
